Here are results for five substances from US20240285671A1, “SEQUENTIAL INNATE AND ADAPTIVE IMMUNE MODULATION FOR CANCER TREATMENT” (Gentechnologiestiftung- Dr. Georg und Ingeburg Scheel …, priority 2021, published 2024).

Experiment [1] has as its system extensive stage small cell lung cancer. Particulars: IMpower133 treatment arm, ITT, with chemotherapy; cited from earlier work.
Experiment [2] shares this test system. Particulars: CASPIAN treatment arm, ITT, with chemotherapy; cited from earlier work.
Experiment [3] has the same test system. Nature of the experiment: IMPULSE phase II trial (NCT02200081), switch maintenance vs continuation maintenance, survival. In kind it is in vivo, human. The text has this: An international, multicentre, open-label phase II trial conducted on 102 extensive stage small cell lung cancer after platinum based first line therapy patients. Patients who had received four cycles of first line induction chemotherapy (platinum-based) were randomized to receive either combination lefitolimod maintenance therapy, or local standard of care (control). After progression, patients received second line therapy.
The phase II IMPULSE study explored the benefit in OS of an immunotherapeutic switch maintenance therapy of ES-SCLC by the TLR9 agonist lefitolimod (dSLIM-30L1). In comparison to the various local standards of care (SoC), typically carboplatin plus etoposide, or cisplatin plus etoposide. […] A combinatorial post hoc analyses was performed of all accessible immunological data and relevant clinical parameters of the IMPLUSE study. Additionally, in order to determine in what conditions adaptive or innate immune stimulation may enhance chemotherapy outcomes, published mPFS and mOS data from the respective treatment and control arms for chemotherapy immunomodulation maintenance studies utilizing PD-L1 inhibitor-antibodies were incorporated, comparing the use of checkpoint inhibitors with the TLR9 agonist used in IMPULSE.
All lung cancer trials used (IMPULSE, IMpower133, CASPIAN, Keynote-604, and EA5161) are “maintenance” trials, wherein an immune induction treatment, a set of chemotherapy cycles, is applied to initiate anti-tumour responses (as defined by RECIST guidelines), followed by maintenance therapy until tumour progress. IMpower133, CASPIAN, Keynote-604, and EA5161 are “continuation maintenance” trials, whereas IMPULSE is a “switch maintenance” trial. In the four continuation maintenance trials, the immunomodulatory product (IMP), i.e., the respective […] checkpoint inhibitors (CPI) atezolizumab, durvalumab, pembrolizumab, or nivolumab, are present during induction chemotherapy and in the maintenance phase. In the switch maintenance trial IMPULSE, the IMP lefitolimod is not used during induction chemotherapy but introduced (“switched” to) in the maintenance phase of the trial (FIG. 1). Thus, for comparison of IMPULSE PFS and OS data with the other studies, IMPULSE mPFS1 and mOS1 were factored from the start of induction chemotherapy. Therefore, for all following analyses, the respective mOS1 values of IMPULSE are used.

Experiment [4] concerns Regulatory T cells (% of CD4+ T cells). Nature of the experiment: Regulatory T cells in blood of IMPULSE patients, flow cytometry. In kind it is in vivo, human. (In general: A flow cytometer gives signals particle by particle.)
Experiment [5] has as its system metastatic colorectal cancer. As to the kind of experiment: IMPALA phase III trial (NCT02077868), progression-free survival. In kind it is in vivo, human. The text has this:
An international, multicentre, open-label phase III trial conducted on 549 metastatic colorectal cancer patients in 8 EU countries. […] After progression, patients started re-induction therapy, with those in the experimental arm continuing to receive lefitolimod in addition.

The test system of experiment [6] is extensive stage small cell lung cancer. Particulars: EA5161 treatment arm, ITT, with chemotherapy; cited from earlier work.
Experiment [7] has the same test system. The settings on record: Keynote-604 treatment arm, ITT, with chemotherapy; cited from earlier work.
The mark [8] stands for this setting: Baseline, end of 4th cycle of induction PE chemotherapy.
Setting [9] is: Visit 2, days 118-125 from start of induction PE chemotherapy.
Setting [10] is: Visit 3, days 146-153 from start of induction PE chemotherapy.
Setting [11] is: Visit 4, days 188-195 from start of induction PE chemotherapy.

Like-named read-outs stand apart in the source and are kept apart here. Marks after values point to notes of the source that are not given here.

As for “Atezolizumab: PD-L1 inhibiting antibody (Roche AG; CAS No. 1380723-44-3), IMpower133 trial”, the mOS treatment in experiment [1] is 12.3 m.

Take “Durvalumab: PD-L1 inhibiting antibody (Astra Zeneca, CAS No. 1428935-60-7), CASPIAN trial”: in experiment [2], the mOS treatment is listed as 13.0 m.

As to Lefitolimod, the mOS treatment in experiment [3] (IMPULSE treatment arm, ITT, mOS1 calculated from start of induction chemotherapy) was 12.4* m. For the same substance, in experiment [3] (OS1, 5 cycles vs 4 cycles of PE chemotherapy followed by TLR9 agonist (FIG. 2)), the “gain in mOS” value amounted to 2.3 m. Further, the “efficacy in terms of mOS” value in experiment [3] (applied subsequent to platinum-based chemotherapy rather than in combination, IMPULSE compared to IMPALA) is “more efficacious”. Moreover, the “mOS improved by” value in experiment [3] (four qw3 PE cycles followed by a 5th cycle with PE in week 1 and TLR9 agonist in weeks 2 and 3 (FIG. 2)) was 2.3 months. Moreover, the PFS1 in experiment [3] (full analysis set (FAS)) is reported as 6.1 months. Besides, the mOS1 is listed as 10.7 months in experiment [3] (patient subgroup (FIG. 6)) and 17.1 months in experiment [3] (patient subgroup with PFS threshold >6.2 months (FIG. 6)). In experiment [3] (switch maintenance therapy, all patients), the “benefit by mPFS or mOS compared to local standards of care” value is given as “No additional benefit”. Further, the “median OS in certain subgroups of patients” value in experiment [3] (switch maintenance therapy, subgroups) is listed as “strong median OS improvements”. For the same substance, the “Regulatory T cells, Max” value in experiment [4] (setting [8]) was 12.22 % of CD4+ T cells; in experiment [4] (setting [9]), 13.65 % of CD4+ T cells; in experiment [4] (setting [10]), 13.06 % of CD4+ T cells; in experiment [4] (setting [11]), 16.33 % of CD4+ T cells. The “Regulatory T cells, Mean” value is 7.3905 % of CD4+ T cells in experiment [4] (setting [8]), 8.2827 % of CD4+ T cells in experiment [4] (setting [9]), 8.7502 % of CD4+ T cells in experiment [4] (setting [10]) and 9.5175 % of CD4+ T cells in experiment [4] (setting [11]). For the same substance, the “Regulatory T cells, Median” value is 7.470 % of CD4+ T cells in experiment [4] (setting [8]), 8.100 % of CD4+ T cells in experiment [4] (setting [9]), 8.905 % of CD4+ T cells in experiment [4] (setting [10]) and 9.205 % of CD4+ T cells in experiment [4] (setting [11]). Further, the “Regulatory T cells, Min” value in experiment [4] (setting [8]) is recorded as 4.19 % of CD4+ T cells; in experiment [4] (setting [9]), 4.44 % of CD4+ T cells; in experiment [4] (setting [10]), 4.27 % of CD4+ T cells; in experiment [4] (setting [11]), 5.82 % of CD4+ T cells. Besides, the “fraction of regulatory T cells (Treg)” value in experiment [4] (over duration of treatment, IMPULSE) is recorded as “increases with duration”. Also, in experiment [5] (patients receiving re-induction treatment followed by cycles of chemotherapy and lefitolimod), the “mPFS compared to control” value is “significantly superior”. Also, the “mPFS compared to the control arm” value in experiment [5] (switch-maintenance therapy) is recorded as “inferior”.

Regarding “Nivolumab: checkpoint inhibitor antibody (Bristol-Myers Squibb; CAS No 946414-94-4), EA5161 trial”, the mOS treatment in experiment [6] is on record as 11.3 m.

As to “Pembrolizumab: checkpoint inhibitor antibody (Merck Inc.; CAS No. 1374853-91-4), Keynote-604 trial”, in experiment [7], the mOS treatment was 10.8 m.
